Reference: patent US10618874B2, “Compounds, cosmetic composition and pharmaceutical composition comprising the same” (INCOSPHARM CORPORATION, priority 2018, dated 2020)

What was measured:
[1] = system: keratinocytes (HEKn) with ATG5 knocked down; assay: melanin pigmentation inhibition and autophagy proteins in ATG5 knocked-down keratinocytes; assay type: cell-based, human; details: 10 μM, FIG. 10; for expression activity of LC3-II and ATG5: western blot
Source text: In order to analyze whether melanin deposition inhibition activity on keratinocytes by treatment with Compound 1 and Compound 2 depends on autophagy activation, ATG5 which is the protein required for autophagy activation was knocked down and treated with melanin to analyze a pigmentation inhibition activity change.
As a specific experimental method, ATG5 siRNA was mixed according to the method of transfection reagent (RNAiMAX, cat #13778-075, Thermo) and deposited in keratinocytes (HEKn, cat # C0015C, Gibco). After 8 hours, Compound 1 and Compound 2 were diluted with Epilife (cat # MEPI500CA, Gibco) without a supplement and an antibiotic to a final concentration of 10 μM for treatment, and cells which were further cultured for 64 hours were dissolved using a cell lysis buffer containing a proteolysis inhibitor. The entire dissolved solution was fractionized using a centrifuge and only the solution containing proteins was extracted. The extracted proteins were quantified by a bicinchoninic acid (BCA) method. 20 μg of proteins were separated by 10% SDS-polyacrylamide gel electrophoresis and transferred to a nitrocellulose film. The film to which the proteins were transferred was blocked by a tris-buffered saline/0.05% Tween-20 (TBS-T) solution containing 5% BSA (bovine serum albumin, Gendepot, Cat # A0100-010) for decreasing a non-specific bonding at room temperature for 1 hour, and then a primary antibody was reacted under the condition of 4° C. overnight and a secondary antibody was reacted at room temperature for 1 hour. For visualization, an enhance chemiluminescence system was used. Then, in order to analyze melanin pigmentation inhibition activity, transfection and treatment with the compounds were performed identically, and then 10 mg/ml of melanin was added by 2 μl at a time and culturing was further performed for 2 hours. The culture medium was removed after completion of culturing, cells were separated from the plate using Trypsin-EDTA (cat # LS-015-09, WELGENE), transferred to a 1.5 ml tube and spun down, a photograph of the pellet was taken, and the absorbance of a solution of the pellet dissolved in 1N NaOH was measured (wavelength: 400 nm, Epoch, BioTek).

[2] = system: human-derived keratinocytes (HEKn); assay: melanin pigmentation in keratinocytes after melanin treatment; assay type: cell-based; details: 48 hours treatment, then melanin 2 hours; absorbance 400 nm; FIG. 9
Procedure: In order to analyze how Compound 1 and Compound 2 obtained in the above Examples affect melanin pigmentation, a degree of pigmentation inhibition by melanin treatment was analyzed.
As a specific experimental method, human-derived keratinocytes (HEKn, cat # C0015C, Gibco) were constantly deposited to the number of 1×10^5 in a 6 well plate for culturing and cultured in an incubator for 24 hours under the condition of […] and 5% CO2 in EpiLife (cat # MEPI500CA, Gibco). Each of Compound 1 or Compound 2 obtained in the above Examples was dissolved at a concentration of 100 mM to form a concentration solution, which was diluted in a medium at a concentration of 20 μM, 1 ml of each diluted solution was added to each well containing 1 ml of the medium first for treatment and cultured for 48 hours, and 10 mg/ml of melanin was added by 2 μl at a time and culturing was further performed for 2 hours. The medium was removed after completion of culturing, cells were separated from the plate using Trypsin-EDTA (cat # LS-015-09, WELGENE), transferred to a 1.5 ml tube and spun down, a photograph of the pellet was taken, and the absorbance of a solution of the pellet dissolved in 1N NaOH was measured (wavelength: 400 nm, Epoch, BioTek).

mushroom tyrosinase = assay: tyrosinase activity inhibition assay; assay type: biochemical; details: 10, 100, 1000 and 10000 ppm; 37° C., 1 hour; FIG. 2
Procedure: As a specific experimental method, mushroom tyrosinase was diluted with a 0.1 M sodium phosphate buffer at 2 unit/ul and dissolved in water at 0.03 wt % of tyrosine. Each experiment group listed in the following Table 1 was also diluted in the 0.1 M sodium phosphate buffer at 10, 100, 1000, and 10000 ppm and mixed as listed in Table 1. Reaction was performed at 37° C. for 1 hour and absorbance was measured, respectively (wavelength: 490 nm, Epoch, BioTek). Based on the results, a tyrosinase inhibition ratio relative to a control group was calculated. [table]

keratinocytes (HEKn) = assay: melanosome degradation: confocal and transmission electron microscopy of keratinocytes given melanosomes; assay type: cell-based, human; details: 10 μM; confocal microscope; FIG. 11
Procedure: In order to confirm whether melanosome and autuphagosome are co-localized by treatment with Compound 1 and Compound 2 obtained in the above Examples, analysis was performed with an electron microscope and a confocal microscope.
As a specific experimental method, Lysis Buffer (Tris 20 mM, NaCl 150 mM, EDTA 1 mM, sucrose 250 mM in DW) was added to melanin cells (HEMn-DP, cat # C2025C, Gibco) containing human-derived melanin at high concentration, freezing and thawing were repeated twice to break a cell membrane, and centrifugation was performed at 1000×g for 5 minutes, thereby obtaining a supernatant. Cushion Buffer (Tris 20 mM, NaCl 150 mM, EDTA 1 mM, sucrose 1.5M in DW) was placed in an ultracentrifuge tube, the same amount of supernatant was added thereto, and then centrifugation was performed under the conditions of 25,000 rpm, […], and 4° C., thereby obtaining melanosomes. The concentration of melanosomes was measured using synthesized melanin (cat # M8631, sigma) as a standard. Keratinocytes (HEKn, cat # C0015C, Gibco) was deposited in a 6 well by 1×10^5 cells/well at a time and cultured for one day. Treatment with 10 μM of Compound 1 and compound 2 each was performed, culturing was performed for one day, separated melanosomes (5 μg/well) was added, and culturing was further performed for 2 days. […]

[3] = system: human-derived melanin cells (HEMn-DP); MITF, Tyrosinase mRNA; assay: melanosome maturation-related genes (qPCR) and melanin content in melanin cells; assay type: cell-based; details: 1 ml of 20 μM added to 1 ml medium, 48 hours, FIGS. 5 to 7
Procedure: In order to analyze how Compound 1 and Compound 2 obtained in the above Examples affect melanosome maturation, an amount of melanosome maturation-related mRNA after treated with Compound 1 and Compound 2 was analyzed with qPCR and a melanin content was measured with absorbance.
As a specific experimental method, human-derived melanin cells (HEMn-DP, cat # C2025C, Gibco) were constantly deposited to the number of 1×10^5 in a 6 well plate for culturing and cultured in an incubator for 24 hours under the condition of 37° C. and 5% CO2 in M254 (cat # M-254-500, Gibco). Each of Compound 1 and Compound 2 was dissolved in DW at a concentration of 100 mM to form a concentration solution, which was diluted in a medium at a concentration of 20 μM, 1 ml of each diluted solution was added to each well containing 1 ml of the medium first for treatment and cultured for 48 hours, and RNeasy mini kit (cat #74106, QIAGEN) was used to extract RNA from melanin cells. […] Then, the experiment was performed identically, the medium was removed after completion of culturing, melanin cells were separated from the plate using Trypsin-EDTA (cat # LS-015-09, WELGENE), transferred to a 1.5 ml tube, and spun down, a photograph of the pellet was taken, and the absorbance of a solution of the pellet dissolved in 1N NaOH was measured (wavelength: 400 nm, Epoch, BioTek).

[4] = system: LC3 (light chain 3; autophagy marker) in keratinocytes (HEKn); assay: western blot on LC3 protein in keratinocytes (autophagy activation); assay type: cell-based, human; details: FIG. 8
Procedure: (§1) For intracellular autophagy analysis by treatment with Compound 1 obtained in the above Example, a western blot was performed on a LC3 (light chain 3; autophagy marker) protein. In addition, for analysis of change in endocytosis-related genes by treatment with Compound 2 obtained in the above Example, qPCR was performed on PAR2, AAK1 (AP2 Associated Kinase 1).
As a specific experimental method, keratinocytes (HEKn, cat # C0015C, Gibco) was treated with Compound 1 and dissolved using a cell lysis buffer containing a proteolysis inhibitor. The entire dissolved solution was fractionized using a centrifuge and only the solution containing proteins was extracted. The extracted proteins were quantified by a bicinchoninic acid (BCA) method. 20 μg of proteins were separated by 10% SDS-polyacrylamide gel electrophoresis and transferred to a nitrocellulose film. The film to which the proteins were transferred was blocked by a tris-buffered saline/0.05% Tween-20 (TBS-T) solution containing 5% non-fat milk for decreasing a non-specific bonding at room temperature for 1 hour, and then a primary antibody was reacted under the condition of 4° C. overnight and a secondary antibody was reacted at room temperature for 1 hour. For visualization, an enhanced chemiluminescence system was used.

[5] = system: keratinocytes (human primary keratinocyte, HEKn); assay: MTT assay in keratinocytes; assay type: cell-based; details: 5, 10 and 50 μM, 4 days, FIG. 4
Procedure: (§2) In order to confirm a treatment concentration of Compound and Compound 2 obtained in the above Examples having no cytotoxicity thereby, an MTT assay was performed.
(§3) As a specific experimental method, in order to confirm cytotoxicity depending on the treatment concentration of Compound 1 and Compound 2, apoptosis analysis was performed in melanin cells (human primary melanocyte, HEMn-DP, cat # C2025C, Gibco) and keratinocytes (human primary keratinocyte, HEKn, cat # C0015C, Gibco). Cells were deposited to the number of 1×10^4 cells/well in a 96 well plate and cultured in an incubator for 24 hours under the condition of 37° C. and 5% CO2.
(§4) Each of Compound 1 and Compound 2 obtained in the above Examples was dissolved in distilled water (DW) at a concentration of 100 mM to form a concentrated solution, which was diluted with a medium, and treatment was performed at concentrations of 5, 10, and 50 μM. After 4 days, the medium of the plate was removed and the plate was treated with 100 μl of an MTT reagent (Sigma, 0.5 mg/ml). After 4 hours, the reagent was removed, dimethyl sulfoxide (DMSO) was added thereto, and absorbance was measured (wavelength: 570 nm, Epoch, BioTek). Here, cell viability was calculated as a percentage to absorbance of a control group (blank) which was not treated with the compound.

[6] = system: melanin cells (human primary melanocyte, HEMn-DP); assay: MTT assay in melanocytes; assay type: cell-based; details: 5, 10 and 50 μM, 4 days, FIG. 3
Procedure: as §2, §3, §4

[7] = system: PAR-2 gene in keratinocytes (HEKn); assay: qPCR of endocytosis-related gene PAR2 in keratinocytes; assay type: cell-based, human; details: FIG. 8
Procedure: as §1
As a specific experimental method, from keratinocytes (HEKn, cat # C0015C, Gibco) treated with Compound 2, RNA was extracted using a RNeasy mini kit (cat #74106, QIAGEN), cDNA was synthesized using a cDNA synthesis kit (cat # FSQ-201, TOYOBO), and then a PAR2(F: CTCTCCTGCAGTGGCACCAT; R: GATGTGCCATCAACCTTACCAA) primer and POWER SYBR MASTER MIX (cat #4367659, Thermo) were mixed at a recommended ratio with the synthesized cDNA, and qPCR was performed with QuantStudio 3 equipment (cat # A28131, Thermo).

Compound	melanin amount in keratinocytes [1]	expression activity of LC3-II and ATG5 [1]	melanin pigmentation on keratinocytes [2]	tyrosinase activity inhibition (mushroom tyrosinase)	co-localization of increased autophagosomes with melanosomes (keratinocytes (HEKn))	influence on melanosome maturation activity (tyrosinase and MITF mRNA, melanin content) [3]	production of LC3-II (matured autophagosome) [4]	cytotoxicity (MTT, cell viability) [5]	cytotoxicity (MTT, cell viability) [6]	expression of the PAR-2 gene [7]
CC(=O)N1C[C@H](O)C[C@H]1C(=O)NCCCC[C@H](NC(=O)[C@H](CCCCN(CC(=O)O)CC(=O)O)N(CC(=O)O)CC(=O)O)C(=O)O [Compound 1]	not decreased	inhibited	effectively inhibited	did not inhibit tyrosinase activity	co-localized with melanosomes	almost no influence	increased	almost no cytotoxicity	almost no cytotoxicity	–
O=C(O)CN(CCCC[C@@H](C(=O)N1C[C@H](O)C[C@H]1C(=O)O)N(CC(=O)O)CC(=O)O)CC(=O)O [Compound 2]	not decreased	inhibited	effectively inhibited	did not inhibit tyrosinase activity	co-localized with melanosomes	almost no influence	–	almost no cytotoxicity	almost no cytotoxicity	decreased
